Results reported in US11654292B2 (priority 2017, dated 2023).
Like-named read-outs stand apart in the source and are kept apart here.

Experiments:
[1] = tested on: mouse breast cancer, 4T1, cells; assay: In vivo TOL (digoxin + PMF) in immune competent mice with 4T1 tumors; design: species or system BALBc mice; details: 7 mg/kg digoxin s.c. x5 + PMF 30 min on day 0, 2 and 4 (TOL), FIG. 7
Method: FIG. 7A. […] Arrows indicate days of treatment; 7B. […] Thus, the life expectancy of mice treated with TOL exceeds that of controls by approximately 1 week.
This treatment was administered on day 0 (first day of treatment), on day 2 and on day 4. Mice were monitored for tumor growth and were sacrificed when they met the NIH criteria for humane endpoint euthanasia.

MDA-MB-231 cells [2] = assay: Sodium dependence of TOL in Ringer's solution with or without sodium; format: cell-based; details: Homo sapiens, MDA-MB-231, 10 min
Method: FIG. 2 TOL is dependent on the presence of sodium.
A study was conducted where the culture media containing MDA-MB-231 cells was replaced with Ringer's solution with or without sodium and then stimulated with pulsed magnetic fields of 80 mT for 10 minutes. Cells were transferred to microfuge tubes containing either Ringers +Na^+ or Ringers−Na^+.

MDA-MB-231 xenografts = assay: In vivo TOL (digoxin + PMF) in mice with MDA-MB-231 xenografts; design: species or system J/Nu mice
Method: This protocol establishes steady-state pharmacokinetics in even poorly vascularized tissues. The mice were exposed to the pulsed magnetic field, using the same parameters as with the cultured cells, for 15 min starting 30 min after the last injection. This treatment was repeated two and four days after the first treatment. Mice were sacrificed and fixed with 4% paraformaldehyde 24 hrs after the third treatment. Tissues from these animals were sectioned and evaluated by a pathologist that was blind to the treatment.

MDA-MB-231 cells [3] = assay: Stimulus intensity-response curve of pulsed magnetic field for cell lysis; format: cell-based; details: 500 nM digoxin, PMF stimulus intensity 80 mT (FIG. 1)
Method: FIG. 1 Stimulus intensity—response curve to determine the strength of the pulsed magnetic field necessary to produce cell lysis of MDA-MB-231 cells, in vitro (p<0.01).
A study was conducted where cells were pulsed with an increasing stimulus intensity to determine the strength of the pulsed magnetic field necessary to produce cell lysis of MDA-MB-231 cells in vitro. […] All tubes were exposed to a 0 to 80 mT PMF.

[4] = tested on: MCF-10a normal breast epithelial cells; assay: Cell lysis, digoxin with 80 mT pulsed magnetic field in solenoid; format: cell-based; details: 100 nM digoxin + 80 mT magnetic pulses at 25 Hz
Description: (§1) Tubes were placed in an 8″1X 2.5″dia. solenoid with 697 turns (500 ft.) of 12 ga copper wire. A 5VDC current from an AE Techron 7224 DC-extended AC amplifier pulsed at 25 Hz, with a 10 msec ramp and fall, controlled by a Techtronics AFG 3021B waveform generator produced 80 mT magnetic pulses in the solenoid.

[5] = tested on: MDA-MB-231 breast cancer cells; assay: as above; format: cell-based; details: 100 nM digoxin + 80 mT magnetic pulses at 25 Hz, within 10 min
Description: as §1

MDA-MB-231 cells [6] = assay: Trypan Blue estimate of cell lysis, ouabain with or without pulsed z-gradient magnetic field (MRI); format: cell-based
Method: Two tubes of MDA-MB-231 cells were prepared. The media in one tube was replaced by media containing 100 nM ouabain to block the sodium pumps. Both tubes were placed in the MRI and offset from center by 317 mm in the z-gradient field and exposed to the pulsed magnetic field. The samples were then repositioned and imaged.
After imaging, the cells in each vial were stained with Trypan Blue to estimate the number of cells that had been lysed by each treatment: (A) magnetic stimulation alone or (B) ouabain and magnetic stimulation. Virtually all of the cells that had only been exposed to pulsed magnet field stimulation were alive (expelled the Trypan Blue stain) and 10-15% of the cells that had been simultaneously treated with ouabain and pulse magnetic field stimulation were dead (appeared shrunken and retained the stain).
In this example, cells were exposed to ouabain for over 60 min during the preparation for the magnetic field stimulation. Because lysis may occur in a small percentage of cells when exposed to ouabain alone, a study was conducted where a vial of cells was exposed to ouabain without pulsed field stimulation for greater than 90 min.
The duration, amplitude and frequency of the pulsed z-gradient field was varied. All targeted osmotic lysis (TOL) vials (ouabain and pulsed magnetic field stimulation) were exposed to 100 nM ouabain for 10 min. Ouabain-treated and normal MDA-MB 231 control vials were exposed to the same pulsed magnetic field and then stained with Trypan Blue to estimate the amount of cell lysis in each tube. Two trials were conducted using the maximum field strength available (289.1689 Amp). The pulsed stimulus for the first of these trials was delivered with a rise time of 10 msec, a 2.5 msec return to baseline and an inter-stimulus interval of 17.5 msec; the stimulus was pulsed with a rise time of 10 msec, a 2.5 msec return to baseline and an inter-stimulus interval of 7.5 msec for the second trial. […]

C[C@H]1O[C@@H](O[C@H]2[C@@H](O)C[C@H](O[C@H]3[C@@H](O)C[C@H](O[C@H]4CC[C@@]5(C)[C@H](CC[C@@H]6[C@@H]5C[C@@H](O)[C@]5(C)[C@@H](C7=CC(=O)OC7)CC[C@]65O)C4)O[C@@H]3C)O[C@@H]2C)C[C@H](O)[C@@H]1O [digoxin]
time to reach humane endpoint euthanasia criteria vs control groups [1]: significantly longer | cytotoxicity at 0.5 µM (MDA-MB-231 cells [2]; read-out: non-viable cells, 500 nM digoxin + 80 mT PMF 10 min (Dig-PMF), Ringers +Na+ (FIG. 2)): ~70% | cytotoxicity at 0.5 µM (MDA-MB-231 cells [2]; read-out: non-viable cells, 500 nM digoxin + 80 mT PMF 10 min (Dig-PMF), Ringers without sodium (FIG. 2)): < 20% | tumor lysis (MDA-MB-231 xenografts; 5 mg/kg digoxin s.c. five times at 1 hr intervals + PMF 15 min, three treatments (TOL)): 80-100% | median tumor necrosis score (grade 1-5) vs controls (MDA-MB-231 xenografts; 5 mg/kg digoxin s.c. x5 + PMF (TOL), FIG. 4, p<0.05): significantly greater | tumor histology, drug-only control vs untreated controls (MDA-MB-231 xenografts; 5 mg/kg digoxin s.c. x5, no magnetic stimulation): did not differ from untreated controls | tumor growth rate vs controls (MDA-MB-231 xenografts; TOL (Dig-PMF), FIG. 6): significantly slower | cell lysis (MDA-MB-231 cells [3]): ~100% | cell lysis when stimulated [4]: Neither digoxin-treated nor untreated MCF-10a cells lysed | cells lysed [5]: 97.5%

C[C@@H]1O[C@@H](O[C@H]2C[C@@H](O)[C@]3(CO)[C@H]4[C@H](O)C[C@]5(C)[C@@H](C6=CC(=O)OC6)CC[C@]5(O)[C@@H]4CC[C@]3(O)C2)[C@H](O)[C@H](O)[C@H]1O [ouabain]
cell lysis, kill rate (MDA-MB-231 cells [6]; 100 nM ouabain 10 min + pulsed z-gradient field, amplitude 289.1689, inter-pulse interval 7.5 msec (50 Hz)): 80-90% | cells dead (retained Trypan Blue stain) (MDA-MB-231 cells [6]; 100 nM ouabain (over 60 min) + pulsed z-gradient magnetic field 5 min, amplitude 187.5973, inter-stimulus interval 17.5 msec): 10-15% | cells dead (MDA-MB-231 cells [6]; ouabain alone, no pulsed field stimulation, greater than 90 min): Less than 1%
